Laboratory results taken from patent US20220096415A1, “Composition for Improving Cognitive Function” (Demencare Laboratory Inc., priority 2018, published 2022).

How the values were obtained:
[1] = system: neurons from APP-KI mouse; test: Human Aβ42 secreted by APP-KI mouse neurons; assay type: cell-based; settings: LA-treated versus c9,t11-CLA-treated nerves, p<0.05, not shown
Excerpt: The amount of Aβ42 generated from endogenous amyloid-β (Aβ) precursor protein APP is usually very small. Thus, it is difficult to accurately quantify Aβ42 secreted from wild-type mouse neurons. Then, the mouse Aβ sequence was changed to a human form (in FIG. 3(B), the mouse and human amino acid sequences). After that, neurons from a knock-in mouse, into which a familial Alzheimer's disease mutation that increases the level of Aβ42 produced was introduced, (Apptm3.1Tcs/Apptm3.1Tcs) (hereinafter, the same as a mouse called APP-KI mouse described in Non-Patent Literature 6: Saito et al. [2014] Nature Neuroscience 17, 661-663) were cultured in a manner similar to the above. Finally, human Aβ42 secreted while the same experiments as in FIG. 3(A) were repeated was quantified (Non-Patent Literature 7: Kimura, Hata, Suzuki [2016] J. Biol. Chem. 291, 24041-24053).

[2] = molecular target: T1, recombinant BACE1 (rBACE1) (Homo sapiens, UniProt P56817); test: BACE1 activity with recombinant BACE1 in the presence of LA or c9,t11-CLA; assay type: biochemical; settings: 100 μM; for BACE1 activity compared to just a solvent DMSO: rBACE1, 37° C. 15 min, then substrate 1 h
T1 construct: purchased R&D Systems 931-AS
Protocol: Whether or not c9,t11-CLA directly acted on BACE1 and changed its activity was checked by measuring the BACE1 activity in the presence or absence of LA or c9,t11-CLA while recombinant BACE1 (rBACE1, catalog number 931-AS; R&D Systems, Minneapolis, Minn., USA) was used (FIG. 6). First, 100 μM LA or c9,t11-CLA, which had been dissolved in DMSO, was added to rBACE1, and the mixture was incubated at 37° C. for 15 min. Next, a chromogenic substrate was added and incubated at 37° C. for 1 h. Then, the BACE1 activity was measured.

wild-type mouse neurons = test: Aβ40 secreted into culture medium by wild-type mouse neurons (sandwich ELISA); assay type: cell-based; settings: 10 uM, 24 h; compared with LA-added neurons (LA set to 1.0)
Protocol: Neurons in the cerebral cortex and hippocampus were isolated from the fetal brain of wild-type mouse (C57BL6/J) and were cultured in Neurobasal Medium containing 2% B-27 Supplement (Invitrogen), 4 mM Glutamax I, and 5% heat-inactivated horse serum (the other detailed conditions were substantially the same as in the protocol disclosed in Non-Patent Literature 4: Chiba et al., [2014] Mol. Biol. Cell 25, 3569-3580).
Primary culture nerves (5×10^3 cells), which had been cultured by the above procedure for 9 to 12 days (DIV9-12), were cultured for 24 h in each of a culture medium containing 10 uM linoleic acid (LA “L1376”, Sigma-Aldrich, Inc.) or a culture medium containing 10 uM c9,t11-CLA (purity: 98%, ABCAM, Inc.) (the experiment was triplicate: n=3 to 6). Next, for each of a sample using LA or a sample using c9,t11-CLA, mouse amyloid β-protein 40 (Aβ40) secreted into the culture medium was quantified by sandwich ELISA (sELISA). […]
The complex was then reacted with an IgG Fab′ fragment of HRP (Horseradish peroxidase)-labeled mouse/rat Aβ(1-16) sequence-specific (rabbit) antibody (IBL, Inc.: Immuno-Biological Laboratories Co, Ltd.). After that, TMB (3,3′,5,5′-tetramethyl benzidine) was used as a chromogenic substrate for quantification. […] In FIG. 3(A), while the level of Aβ40 secreted when LA was added was set to 1.0, the level of Aβ40 secreted when c9,t11-CLA was added was quantified.

BACE1 = BACE1 activity of wild-type mouse neurons (β-Secretase Activity Assay Kit); assay type: cell-based; settings: 10 uM, 24 h, compared with LA-added neurons
Protocol: The BACE1 activity of the above wild-type mouse neurons used in the experiments shown in FIG. 3 was measured using a β-Secretase (BACE1) Activity Assay Kit (“ab65357”, Abcam, Inc.) in accordance with the instructions.

wild-type neurons = test: Western blot of APP, BACE1 and PS1 NTF levels in wild-type neurons; assay type: cell-based, mouse; settings: c9,t11-CLA versus LA
Protocol: Western blot was used to analyze the level of APP (Aβ precursor, which is a substrate for BACE1), BACE1, PS1 NTF (a catalytic unit of γ-Secretase, which is an enzyme for cleaving CTFβ, an APP C-terminal fragment containing an Aβ sequence cleaved by BACE1, to generate Aβ), and a membrane protein Flotillin (control protein) in the LA-added or c9,t11-CLA-added wild-type neurons. The whole cells were lysed in RIPA buffer (components: 50 mM Tris-HCl [pH 8.0], 150 mM NaCl, 0.5% SDS, 0.5% sodium deoxycholate, and 1% Nonidet P-40). The extracted proteins (15 μg protein) were subjected to electrophoresis using SDS-polyacrylamide gel. Then, Western blot with each antibody was used to analyze APP (with the same as an antibody G369, described in Non-Patent Literature 8: Oishi et al. [1997] Mol. Med. 3, 111-123), BACE1 (with an antibody D10E5; Cell Signaling Technology, Inc.), PS1 NTF (with the same as an antibody Ab14, described in Non-Patent Literature 9: Thinakaran et al. [1996] Neuron, 17, 181-190), and Flotillin-1 (with an antibody 610821, BD Bioscience, Inc.). The protein reacted with each antibody was detected using a Clarity Western ECL substrate (Cat *170-5061; Bio-Rad) and quantified with LAS-4000 (Fujifilm).

AD model mice = AD model mice with oral intake of c9,t11-CLA: brain staining (IL-10, phosphorylated tau, astrocytes, microglia); assay type: in vivo, mouse
neurons = settings: Non-Patent Literature 1; cited from earlier work
neural stem cells = settings: Non-Patent Literature 3; cited from earlier work
[3] = hippocampus, oral intake versus no intake

T1 sequence (P56817 46-457 limits assumed): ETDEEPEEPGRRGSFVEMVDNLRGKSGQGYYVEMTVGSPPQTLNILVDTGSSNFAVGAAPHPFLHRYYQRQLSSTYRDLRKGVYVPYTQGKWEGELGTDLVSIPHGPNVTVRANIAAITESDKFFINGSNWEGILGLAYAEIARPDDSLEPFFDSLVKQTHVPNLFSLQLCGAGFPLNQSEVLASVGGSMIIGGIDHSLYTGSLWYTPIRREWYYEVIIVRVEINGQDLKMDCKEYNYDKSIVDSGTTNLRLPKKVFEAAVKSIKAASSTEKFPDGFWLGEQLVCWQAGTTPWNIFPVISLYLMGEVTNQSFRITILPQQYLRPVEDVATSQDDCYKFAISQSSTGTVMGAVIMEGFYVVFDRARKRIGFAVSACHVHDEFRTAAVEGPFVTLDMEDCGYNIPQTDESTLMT

level of human Aβ42 secreted [1] | SMILES | BACE1 activity compared to just a solvent DMSO [2] | level of Aβ produced/secreted (mouse Aβ40) (wild-type mouse neurons) | BACE1 activity of neurons (BACE1) | level of APP (wild-type neurons) | level of BACE1 (wild-type neurons) | level of PS1 NTF (wild-type neurons) | difference in BACE1 activity between LA and c9,t11-CLA ([2]; rBACE1) | Microglia (Iba1 staining) (AD model mice; cortex, CLA intake group) | Microglia (Iba1 staining) (AD model mice; hippocampus, CLA intake group) | number of IL-10-expressing cells (AD model mice; hippocampus, CLA intake group) | Astrocyte staining (AD model mice; [3]) | Phosphorylated tau protein staining (AD model mice; [3]) | prevention of glutamic acid-induced hyper-excited state and cell death of neurons (neuroprotective effect) (neurons) | effect on growth of neural stem cells (neural stem cells)
significantly lower | CCCCC/C=C\C/C=C\CCCCCCCC(=O)O [LA, linoleic acid, reference compound] | increase in the activity |  |  |  |  |  |  |  |  |  |  |  |  | 
 | CCCCCC/C=C/C=C\CCCCCCCC(=O)O [c9,t11-CLA, c9,t11-conjugated linoleic acid] | increase in the activity | significantly lower | significantly lower | no observed significant difference | no observed significant difference | no observed significant difference | no observed significant difference | significant increase | significant increase | significantly increased | tended to decrease | tended to decrease | can exert the effects | promoting growth of neural stem cells
 | CCCCC/C=C\C=C\CCCCCCCCC(=O)O [t10,c12-CLA, t10,c12-conjugated linoleic acid, reference compound] |  |  |  |  |  |  |  |  |  |  |  |  | fails to exert such effects | inhibition of growth of neural stem cells
